Key:
Format in all cases: in vivo
Collagen Type 1 = assay: Mouse laser irradiation model: EMT assessment, Collagen Type 1 staining; settings: 25 mg/kg orally once a day for three weeks
Description: It is known that laser irradiation of a mouse ocular fundus induces choroidal angiogenesis and EMT (Reference document: Ishikawa, et al, Exp Eye Res. 2016 January; 142:19.25). So, zaltoprofen was assessed for the suppressive effect of CNV and EMT by using a mouse laser irradiation model. A zaltoprofen suspension was prepared by stirring 0.15 g of zaltoprofen (available from TOKYO CHEMICAL […] CO., LTD.) and 0.75 g of gum arabic (available from Wako Pure Chemical Industries, Ltd.) in 60 mL of water. A medium (Vehicle) was prepared by dissolving and stirring 0.75 g of gum arabic in 60 mL of water. Then, an ocular fundus of a C57BL/6J mouse (8-week old, N=13) was laser-irradiated at four points for each eye under a slit lump using a multi-color laser light coagulator. From directly after irradiation, a vehicle or a zaltoprofen solution (25 mg/kg) was orally administered once a day for three weeks, and the following assessments were conducted. For (1) and (3), the same individual was used. After three weeks from laser irradiation, mice were euthanatized by cervical dislocation, and eyeballs were extracted, and dipped and fixed in 4% paraformaldehyde phosphate buffer (Wako Pure Chemical Industries, Ltd.). […] The specimen was subjected to photography of a stained image by the anti-Collagen Type 1 antibody under a microscope, and then quantitatively assessed.

C57BL/6J mouse = assay: Mouse laser irradiation model: CNV assessment by fluorescent fundus photograph; settings: 25 mg/kg orally once a day, versus Vehicle administration group
Description: It is known that laser irradiation of a mouse ocular fundus induces choroidal angiogenesis and EMT (Reference document: Ishikawa, et al, Exp Eye Res. 2016 January; 142:19.25). So, zaltoprofen was assessed for the suppressive effect of CNV and EMT by using a mouse laser irradiation model. A zaltoprofen suspension was prepared by stirring 0.15 g of zaltoprofen (available from TOKYO CHEMICAL […] CO., LTD.) and 0.75 g of gum arabic (available from Wako Pure Chemical Industries, Ltd.) in 60 mL of water. A medium (Vehicle) was prepared by dissolving and stirring 0.75 g of gum arabic in 60 mL of water. Then, an ocular fundus of a C57BL/6J mouse (8-week old, N=13) was laser-irradiated at four points for each eye under a slit lump using a multi-color laser light coagulator. From directly after irradiation, a vehicle or a zaltoprofen solution (25 mg/kg) was orally administered once a day for three weeks, and the following assessments were conducted. For (1) and (3), the same individual was used. After two weeks from laser irradiation, Fluorescite Injection 500 mg (Alcon Japan Ltd.) was administered (1 mL/kg) from the caudal vein, after about 1 minute from the administration, and a fluorescent fundus photograph was taken. Four points for each eye from the taken fluorescent fundus photograph were scored on the basis of the following assessment criteria. [Assessment Criteria] [table]

Vimentin = assay: Mouse laser irradiation model: EMT assessment, Vimentin staining; settings: 25 mg/kg orally once a day for three weeks
Description: It is known that laser irradiation of a mouse ocular fundus induces choroidal angiogenesis and EMT (Reference document: Ishikawa, et al, Exp Eye Res. 2016 January; 142:19.25). So, zaltoprofen was assessed for the suppressive effect of CNV and EMT by using a mouse laser irradiation model. A zaltoprofen suspension was prepared by stirring 0.15 g of zaltoprofen (available from TOKYO CHEMICAL […] CO., LTD.) and 0.75 g of gum arabic (available from Wako Pure Chemical Industries, Ltd.) in 60 mL of water. A medium (Vehicle) was prepared by dissolving and stirring 0.75 g of gum arabic in 60 mL of water. Then, an ocular fundus of a C57BL/6J mouse (8-week old, N=13) was laser-irradiated at four points for each eye under a slit lump using a multi-color laser light coagulator. From directly after irradiation, a vehicle or a zaltoprofen solution (25 mg/kg) was orally administered once a day for three weeks, and the following assessments were conducted. For (1) and (3), the same individual was used. After three weeks from laser irradiation, mice were euthanatized by cervical dislocation, and eyeballs were extracted, and dipped and fixed in 4% paraformaldehyde phosphate buffer (available from Wako Pure Chemical Industries, Ltd.). […]

CC(C(=O)O)c1ccc2c(c1)CC(=O)c1ccccc1S2 (stereo not drawn) [Zaltoprofen, zaltoprofen]
EMT suppressive effect (Collagen Type 1 assessment) (Collagen Type 1): significant suppressive effect for EMT | Stained volume of Collagen Type 1 (Collagen Type 1; versus Vehicle administration group, p<0.05): significantly decreases | CNV by laser irradiation (fluorescent fundus photographs) (C57BL/6J mouse; FIG. 22): significantly suppressed | CNV score by laser irradiation (C57BL/6J mouse; two weeks after laser irradiation): significantly lower | EMT in the laser irradiation model (Vimentin): suppresses EMT | Vimentin positive area (Vimentin; versus Vehicle administration group): reduced
